Assays:
[1] = molecular target: T1, Solute carrier organic anion transporter family member 1B1 (Homo sapiens, UniProt Q9Y6L6); assay: (§1) TP_TRANSPORTER: uptake in Xenopus laevis oocytes; assay type: functional, cell-based; details: oocyte
T1 sequence (Q9Y6L6 whole entry): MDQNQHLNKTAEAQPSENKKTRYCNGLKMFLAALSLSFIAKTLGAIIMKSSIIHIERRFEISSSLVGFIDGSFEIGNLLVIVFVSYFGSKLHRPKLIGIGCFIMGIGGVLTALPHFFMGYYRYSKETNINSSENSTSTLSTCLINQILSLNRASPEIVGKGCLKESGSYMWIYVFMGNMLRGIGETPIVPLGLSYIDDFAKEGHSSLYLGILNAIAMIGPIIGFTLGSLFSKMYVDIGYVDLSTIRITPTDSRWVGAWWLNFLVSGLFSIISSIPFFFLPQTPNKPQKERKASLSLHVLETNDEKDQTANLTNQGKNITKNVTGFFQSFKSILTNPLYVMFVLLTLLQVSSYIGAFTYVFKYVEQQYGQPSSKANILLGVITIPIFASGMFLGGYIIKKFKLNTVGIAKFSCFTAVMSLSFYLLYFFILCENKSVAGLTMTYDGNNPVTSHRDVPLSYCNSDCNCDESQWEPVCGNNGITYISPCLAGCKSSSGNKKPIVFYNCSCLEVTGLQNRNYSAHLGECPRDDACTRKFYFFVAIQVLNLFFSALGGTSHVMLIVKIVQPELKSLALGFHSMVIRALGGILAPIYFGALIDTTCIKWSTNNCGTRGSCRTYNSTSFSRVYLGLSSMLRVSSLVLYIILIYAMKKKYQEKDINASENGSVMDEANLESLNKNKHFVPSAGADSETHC

[2] = substrate: N[C@@H](Cc1cc(I)c(Oc2cc(I)c(O)c(I)c2)c(I)c1)C(=O)O; assay: as §1; assay type: functional, cell-based, Oocyte
[3] = substrate: N[C@@H](Cc1cc(I)c(Oc2ccc(O)c(I)c2)c(I)c1)C(=O)O; assay: as §1; assay type: functional, cell-based, Oocyte

In the case of CCCCC[C@H](O)/C=C/[C@H]1[C@H](O)CC(=O)[C@@H]1C/C=C\CCCC(=O)O [DINOPROSTONE], the Activity [1] is reported as “substrate [+]”.

With C[C@]12CC[C@@H]3c4ccc(O)cc4CC[C@H]3[C@@H]1CC[C@@H]2O[C@@H]1O[C@H](C(=O)O)[C@@H](O)[C@H](O)[C@H]1O [ESTRADIOL 17B GLUCURONIDE] the Activity [1] was “substrate [+]”.

For CCCCC/C=C\C\C=C/C=C/C=C/[C@@H](SC[C@@H](NC(=O)CC[C@H](N)C(=O)O)C(=O)NCC(=O)O)[C@@H](O)CCCC(=O)O [LEUKOTRIEN C4], the Activity [1] was “substrate [+]”.

For CCCCC/C=C\C\C=C/C=C/C=C/[C@@H](SC[C@H](N)C(=O)O)[C@@H](O)CCCC(=O)O [LEUKOTRIEN E4], the Activity [1] was “substrate [+]”.

In the case of C[C@]12CC[C@H](OS(=O)(=O)O)CC1=CC[C@@H]1[C@@H]2CC[C@]2(C)C(=O)CC[C@@H]12 [PRASTERONE SULFURIC ACID], the Activity [1] is reported as “substrate [+]”.

With CCCCC[C@H](O)/C=C/[C@H]1OC(O)C[C@H](O)[C@@H]1C/C=C\CCCC(=O)O (stereo partly drawn) [THROMBOXANE B2] the Activity [1] was “substrate [+]”.

B1: Solute carrier organic anion transporter family member 1B1 (Homo sapiens) (protein)
chain: MDQNQHLNKTAEAQPSENKKTRYCNGLKMFLAALSLSFIAKTLGAIIMKSSIIHIERRFEISSSLVGFIDGSFEIGNLLVIVFVSYFGSKLHRPKLIGIGCFIMGIGGVLTALPHFFMGYYRYSKETNINSSENSTSTLSTCLINQILSLNRASPEIVGKGCLKESGSYMWIYVFMGNMLRGIGETPIVPLGLSYIDDFAKEGHSSLYLGILNAIAMIGPIIGFTLGSLFSKMYVDIGYVDLSTIRITPTDSRWVGAWWLNFLVSGLFSIISSIPFFFLPQTPNKPQKERKASLSLHVLETNDEKDQTANLTNQGKNITKNVTGFFQSFKSILTNPLYVMFVLLTLLQVSSYIGAFTYVFKYVEQQYGQPSSKANILLGVITIPIFASGMFLGGYIIKKFKLNTVGIAKFSCFTAVMSLSFYLLYFFILCENKSVAGLTMTYDGNNPVTSHRDVPLSYCNSDCNCDESQWEPVCGNNGITYISPCLAGCKSSSGNKKPIVFYNCSCLEVTGLQNRNYSAHLGECPRDDACTRKFYFFVAIQVLNLFFSALGGTSHVMLIVKIVQPELKSLALGFHSMVIRALGGILAPIYFGALIDTTCIKWSTNNCGTRGSCRTYNSTSFSRVYLGLSSMLRVSSLVLYIILIYAMKKKYQEKDINASENGSVMDEANLESLNKNKHFVPSAGADSETHC
Molecule B1 has a Km [2] of 3 µM and a Km [3] of 2.7 µM.

— ChEMBL document CHEMBL2073974, “Identification of a novel gene family encoding human liver-specific organic anion transporter LST-1” (J Biol Chem, 1999)
